Data published in ChEMBL document CHEMBL5465560, “Selectivity Literature for EUbOPEN Chemogenomic Library” (2024).

Legend:
[1] = biological target: Phosphatidylinositol 4-kinase beta (Homo sapiens, UniProt Q9UBF8); experiment: Selectivity interaction (KinomeScan (DiscoverX)) EUB0000666a PI4KB; details: at 10 µM
[2] = biological target: T1, Serine/threonine-protein kinase TAO1 (Homo sapiens) (UniProt Q7L7X3); experiment: Selectivity interaction (KinomeScan (DiscoverX)) EUB0001079a TAOK1; details: at 1 µM
T1 sequence (whole entry): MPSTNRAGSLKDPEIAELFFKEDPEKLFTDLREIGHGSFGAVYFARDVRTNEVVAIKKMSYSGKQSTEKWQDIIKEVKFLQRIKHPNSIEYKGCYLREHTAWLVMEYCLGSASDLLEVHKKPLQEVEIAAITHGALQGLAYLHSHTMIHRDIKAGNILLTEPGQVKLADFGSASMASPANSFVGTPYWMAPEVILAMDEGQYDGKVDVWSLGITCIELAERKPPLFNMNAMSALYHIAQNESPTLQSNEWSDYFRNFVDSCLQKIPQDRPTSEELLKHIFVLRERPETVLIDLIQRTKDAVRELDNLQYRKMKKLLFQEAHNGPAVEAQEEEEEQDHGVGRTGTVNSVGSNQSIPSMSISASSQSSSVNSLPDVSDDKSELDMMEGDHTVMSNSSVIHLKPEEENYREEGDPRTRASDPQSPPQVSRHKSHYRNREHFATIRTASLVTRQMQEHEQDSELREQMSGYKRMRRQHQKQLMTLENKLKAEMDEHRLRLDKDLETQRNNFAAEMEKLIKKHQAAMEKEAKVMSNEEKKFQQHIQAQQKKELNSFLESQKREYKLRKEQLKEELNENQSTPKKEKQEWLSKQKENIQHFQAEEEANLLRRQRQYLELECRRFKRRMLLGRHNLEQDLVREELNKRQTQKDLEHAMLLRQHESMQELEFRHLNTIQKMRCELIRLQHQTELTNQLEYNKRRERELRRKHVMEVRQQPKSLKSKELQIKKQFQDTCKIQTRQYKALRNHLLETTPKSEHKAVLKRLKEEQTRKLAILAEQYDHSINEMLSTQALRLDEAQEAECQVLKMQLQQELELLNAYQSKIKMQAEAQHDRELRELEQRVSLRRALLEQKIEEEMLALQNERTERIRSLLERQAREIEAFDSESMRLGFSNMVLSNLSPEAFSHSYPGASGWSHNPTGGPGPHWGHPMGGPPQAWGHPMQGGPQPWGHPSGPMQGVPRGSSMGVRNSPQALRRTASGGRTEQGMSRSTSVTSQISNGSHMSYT

[3] = biological target: Mitogen-activated protein kinase 9 (Homo sapiens, UniProt P45984); experiment: Selectivity interaction (KinomeScan (DiscoverX)) EUB0000092b MAPK9; details: at 10 µM
[4] = biological target: Hepatocyte growth factor receptor (Homo sapiens, UniProt P08581); experiment: Selectivity interaction (Kinase counterscreening (biochemical assay)) EUB0000604a MET
[5] = biological target: Serine/threonine-protein kinase PRP4 homolog (Homo sapiens) (UniProt Q13523); experiment: Selectivity interaction (Ambit KINOMEscan and KiNATiv profiling in Jurkat cells) EUB0000090b PRPF4; format: cell-based; details: at 1 µM
[6] = biological target: T2, Serine/threonine-protein kinase RIO1 (Homo sapiens) (UniProt Q9BRS2); details: at 10 µM
T2 sequence (whole entry): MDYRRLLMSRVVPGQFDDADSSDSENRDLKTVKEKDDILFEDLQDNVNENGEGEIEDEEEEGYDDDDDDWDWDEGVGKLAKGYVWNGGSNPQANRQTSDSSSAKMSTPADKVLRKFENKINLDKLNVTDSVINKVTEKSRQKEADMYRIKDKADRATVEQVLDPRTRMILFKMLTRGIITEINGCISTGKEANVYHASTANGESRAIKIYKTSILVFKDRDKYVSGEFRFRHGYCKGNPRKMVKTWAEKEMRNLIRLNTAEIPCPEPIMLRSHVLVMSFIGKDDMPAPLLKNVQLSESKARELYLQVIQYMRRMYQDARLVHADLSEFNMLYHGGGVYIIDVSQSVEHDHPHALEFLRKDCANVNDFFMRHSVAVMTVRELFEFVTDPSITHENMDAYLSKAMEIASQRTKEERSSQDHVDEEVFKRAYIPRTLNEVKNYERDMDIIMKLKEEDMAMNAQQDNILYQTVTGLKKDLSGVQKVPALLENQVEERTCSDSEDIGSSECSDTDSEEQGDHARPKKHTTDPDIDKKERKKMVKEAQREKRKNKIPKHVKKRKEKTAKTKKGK

[7] = biological target: T3, Aurora kinase C (Homo sapiens) (UniProt Q9UQB9); experiment: Selectivity interaction (KinomeScan (DiscoverX)) EUB0001619a AURKC; details: at 1 µM
T3 sequence (whole entry): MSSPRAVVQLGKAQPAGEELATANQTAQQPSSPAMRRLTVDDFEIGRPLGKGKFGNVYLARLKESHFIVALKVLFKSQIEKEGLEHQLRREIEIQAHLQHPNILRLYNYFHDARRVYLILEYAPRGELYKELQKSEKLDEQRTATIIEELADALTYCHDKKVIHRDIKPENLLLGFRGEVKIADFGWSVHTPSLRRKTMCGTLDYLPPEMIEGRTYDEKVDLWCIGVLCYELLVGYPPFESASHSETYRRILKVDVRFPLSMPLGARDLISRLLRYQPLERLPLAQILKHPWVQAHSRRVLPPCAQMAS

[8] = biological target: Serine/threonine-protein kinase RIO2 (Homo sapiens) (UniProt Q9BVS4); experiment: Selectivity interaction (KinomeScan (DiscoverX)) EUB0000695a RIOK2; details: at 100 nM
Sequence of Serine/threonine-protein kinase RIO2 (Homo sapiens) (Q9BVS4 whole entry, looked up): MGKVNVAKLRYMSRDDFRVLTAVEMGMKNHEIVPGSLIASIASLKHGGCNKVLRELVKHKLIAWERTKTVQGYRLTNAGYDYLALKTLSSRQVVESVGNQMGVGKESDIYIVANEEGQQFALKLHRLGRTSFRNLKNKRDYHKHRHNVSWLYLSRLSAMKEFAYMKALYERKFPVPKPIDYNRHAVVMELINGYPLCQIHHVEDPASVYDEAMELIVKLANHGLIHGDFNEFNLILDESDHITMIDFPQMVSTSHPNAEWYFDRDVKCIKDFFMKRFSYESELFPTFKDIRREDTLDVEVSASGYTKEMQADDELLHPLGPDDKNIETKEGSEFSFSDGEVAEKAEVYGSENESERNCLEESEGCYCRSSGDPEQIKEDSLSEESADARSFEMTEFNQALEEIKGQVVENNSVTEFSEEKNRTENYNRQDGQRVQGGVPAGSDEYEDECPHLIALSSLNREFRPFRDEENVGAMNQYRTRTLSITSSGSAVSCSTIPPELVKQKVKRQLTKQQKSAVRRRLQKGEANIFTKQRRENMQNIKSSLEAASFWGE

Sequence of Hepatocyte growth factor receptor (P08581 whole entry): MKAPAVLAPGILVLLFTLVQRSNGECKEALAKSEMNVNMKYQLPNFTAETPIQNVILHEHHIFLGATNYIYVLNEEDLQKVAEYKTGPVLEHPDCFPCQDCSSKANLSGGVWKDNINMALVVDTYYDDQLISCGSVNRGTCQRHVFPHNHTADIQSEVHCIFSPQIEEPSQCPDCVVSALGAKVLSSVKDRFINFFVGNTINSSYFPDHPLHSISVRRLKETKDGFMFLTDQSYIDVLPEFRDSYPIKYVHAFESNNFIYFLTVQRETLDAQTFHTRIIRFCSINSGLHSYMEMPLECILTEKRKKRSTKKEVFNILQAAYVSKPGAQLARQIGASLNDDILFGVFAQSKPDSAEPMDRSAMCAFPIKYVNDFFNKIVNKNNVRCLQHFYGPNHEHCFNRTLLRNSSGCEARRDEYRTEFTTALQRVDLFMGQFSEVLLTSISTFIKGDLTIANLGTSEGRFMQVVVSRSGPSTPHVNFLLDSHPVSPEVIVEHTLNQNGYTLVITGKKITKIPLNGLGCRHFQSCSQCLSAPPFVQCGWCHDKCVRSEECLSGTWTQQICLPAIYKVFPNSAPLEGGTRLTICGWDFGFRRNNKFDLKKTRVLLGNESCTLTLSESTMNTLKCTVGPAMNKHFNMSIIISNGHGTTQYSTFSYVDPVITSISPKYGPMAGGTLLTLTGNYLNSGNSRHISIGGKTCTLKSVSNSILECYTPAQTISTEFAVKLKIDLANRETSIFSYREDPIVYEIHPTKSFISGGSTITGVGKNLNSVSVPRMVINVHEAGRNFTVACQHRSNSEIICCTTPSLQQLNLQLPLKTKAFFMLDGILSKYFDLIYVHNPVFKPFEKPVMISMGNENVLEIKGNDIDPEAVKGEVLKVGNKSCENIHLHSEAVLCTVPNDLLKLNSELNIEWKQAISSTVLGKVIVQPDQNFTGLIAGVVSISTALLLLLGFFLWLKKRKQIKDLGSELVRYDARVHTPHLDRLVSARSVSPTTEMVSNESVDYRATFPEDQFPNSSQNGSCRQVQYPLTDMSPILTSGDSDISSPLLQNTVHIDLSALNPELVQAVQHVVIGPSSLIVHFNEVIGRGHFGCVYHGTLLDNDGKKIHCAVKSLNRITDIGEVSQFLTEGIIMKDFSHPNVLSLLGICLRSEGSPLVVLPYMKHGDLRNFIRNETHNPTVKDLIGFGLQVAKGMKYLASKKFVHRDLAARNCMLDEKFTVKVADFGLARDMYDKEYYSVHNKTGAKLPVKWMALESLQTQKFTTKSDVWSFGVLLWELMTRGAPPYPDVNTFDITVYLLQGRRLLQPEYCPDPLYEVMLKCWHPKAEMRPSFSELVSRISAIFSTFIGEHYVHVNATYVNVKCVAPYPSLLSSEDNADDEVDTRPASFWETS
Sequence of Serine/threonine-protein kinase PRP4 homolog (Homo sapiens) (Q13523 whole entry): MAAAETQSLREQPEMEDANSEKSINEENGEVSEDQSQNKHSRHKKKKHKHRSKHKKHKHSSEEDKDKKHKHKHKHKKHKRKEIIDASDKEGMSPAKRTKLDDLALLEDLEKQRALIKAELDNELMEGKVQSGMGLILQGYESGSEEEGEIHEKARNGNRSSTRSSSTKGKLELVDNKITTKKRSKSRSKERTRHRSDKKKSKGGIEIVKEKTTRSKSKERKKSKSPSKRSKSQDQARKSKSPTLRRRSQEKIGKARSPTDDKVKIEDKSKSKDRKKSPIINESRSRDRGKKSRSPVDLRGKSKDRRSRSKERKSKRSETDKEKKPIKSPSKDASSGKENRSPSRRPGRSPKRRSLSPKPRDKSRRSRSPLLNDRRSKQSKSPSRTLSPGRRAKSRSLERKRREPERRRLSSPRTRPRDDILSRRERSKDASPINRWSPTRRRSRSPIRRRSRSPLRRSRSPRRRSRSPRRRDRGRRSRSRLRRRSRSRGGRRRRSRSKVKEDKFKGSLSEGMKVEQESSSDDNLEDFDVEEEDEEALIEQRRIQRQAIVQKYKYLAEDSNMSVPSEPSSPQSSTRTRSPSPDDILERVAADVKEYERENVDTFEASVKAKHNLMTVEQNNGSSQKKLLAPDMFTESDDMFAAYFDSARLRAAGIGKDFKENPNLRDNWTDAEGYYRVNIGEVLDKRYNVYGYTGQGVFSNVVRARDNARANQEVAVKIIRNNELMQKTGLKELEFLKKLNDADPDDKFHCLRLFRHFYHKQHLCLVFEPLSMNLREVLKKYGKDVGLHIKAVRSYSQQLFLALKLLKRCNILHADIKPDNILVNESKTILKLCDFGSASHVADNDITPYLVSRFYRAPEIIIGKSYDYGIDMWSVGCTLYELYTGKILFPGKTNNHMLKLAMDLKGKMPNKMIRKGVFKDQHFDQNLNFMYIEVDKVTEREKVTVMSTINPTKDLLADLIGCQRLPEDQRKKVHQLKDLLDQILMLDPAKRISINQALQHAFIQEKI
Sequence of Mitogen-activated protein kinase 9 (P45984 whole entry, looked up): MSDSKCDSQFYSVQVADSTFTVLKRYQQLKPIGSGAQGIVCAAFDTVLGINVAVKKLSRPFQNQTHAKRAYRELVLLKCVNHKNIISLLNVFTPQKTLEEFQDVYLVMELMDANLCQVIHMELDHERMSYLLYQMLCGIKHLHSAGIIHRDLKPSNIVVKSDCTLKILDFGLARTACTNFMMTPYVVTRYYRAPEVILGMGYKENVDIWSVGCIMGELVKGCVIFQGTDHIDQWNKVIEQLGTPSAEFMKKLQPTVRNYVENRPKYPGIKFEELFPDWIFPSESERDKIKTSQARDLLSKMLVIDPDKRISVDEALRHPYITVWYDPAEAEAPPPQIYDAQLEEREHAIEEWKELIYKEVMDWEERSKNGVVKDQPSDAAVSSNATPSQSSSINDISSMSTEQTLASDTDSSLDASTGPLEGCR
Sequence of Phosphatidylinositol 4-kinase beta (Q9UBF8 2-816 limits assumed): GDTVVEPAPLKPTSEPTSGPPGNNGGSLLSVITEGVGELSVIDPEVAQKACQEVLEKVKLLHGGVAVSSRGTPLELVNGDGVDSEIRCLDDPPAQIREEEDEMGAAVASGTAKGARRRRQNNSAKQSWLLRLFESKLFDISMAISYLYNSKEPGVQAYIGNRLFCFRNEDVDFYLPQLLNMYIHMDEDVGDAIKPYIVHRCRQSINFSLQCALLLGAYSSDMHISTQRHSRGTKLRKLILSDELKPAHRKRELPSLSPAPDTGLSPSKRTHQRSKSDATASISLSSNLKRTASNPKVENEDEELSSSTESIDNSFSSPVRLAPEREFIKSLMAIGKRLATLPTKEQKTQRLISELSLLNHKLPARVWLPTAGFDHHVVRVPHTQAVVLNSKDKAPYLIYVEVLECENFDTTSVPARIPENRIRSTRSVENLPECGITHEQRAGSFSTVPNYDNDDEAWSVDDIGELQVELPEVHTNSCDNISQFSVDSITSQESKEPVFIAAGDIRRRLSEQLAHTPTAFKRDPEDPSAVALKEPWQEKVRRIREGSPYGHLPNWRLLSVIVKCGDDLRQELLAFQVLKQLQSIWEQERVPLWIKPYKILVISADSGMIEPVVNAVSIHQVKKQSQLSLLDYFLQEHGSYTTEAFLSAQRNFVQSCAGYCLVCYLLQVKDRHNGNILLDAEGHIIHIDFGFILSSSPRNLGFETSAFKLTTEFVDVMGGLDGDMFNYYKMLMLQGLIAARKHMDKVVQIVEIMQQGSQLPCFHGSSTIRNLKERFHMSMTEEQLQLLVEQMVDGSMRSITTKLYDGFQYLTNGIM

## O=C(NOC[C@H](O)CO)c1ccc(F)c(F)c1Nc1ccc(I)cc1F
[1]
  % of control: 100%

## Nc1cnc(N2CCc3cc(S(=O)(=O)Nc4c(F)cc(Cl)cc4F)cc(N4CCCC4=O)c32)nc1 [TP-020n]
[2]
  % of control: 80%

## CCC(=O)N1CCN(c2ccc(-n3c(=O)ccc4cnc5ccc(-c6cnc7ccccc7c6)cc5c43)cc2C(F)(F)F)CC1
[3]
  % of control: 40%

## Cc1cnc(Nc2ccc(F)cc2Cl)nc1-c1c[nH]c(C(=O)N[C@H](CO)c2cccc(Cl)c2)c1
[4]
  Ki: > 4 µM

## CN(C)C/C=C/C(=O)Nc1ccc(C(=O)N2CCCC(Nc3ncc(Cl)c(-c4c[nH]c5ccccc45)n3)C2)cc1 (stereo not drawn)
[5]
  % of control: 74%

## Cc1cc([C@@H](C)Nc2ccccc2C(=O)O)c2nc(N3CCOCC3)cc(=O)n2c1 [AZD-6482]
[6]
  % of control: 100%

## N#Cc1cccc(-c2c[nH]c3ncnc(N4CCOCC4)c23)c1
[7]
  % of control: 43%

## Cc1cc(F)c(C(=O)Nc2cccc(-c3nncn3C(C)C)n2)cc1-n1cnc(C2CC2)c1
[8]
  % of control: 100%
